This note sets out measurements from patent US20140038989A1, “TETRAHYDROPYRAZOLO [1,5-A] PYRIMIDINE AS ANTI-TUBERCULOSIS COMPOUNDS” (Glaxo Group Limited, priority 2011, published 2014).

Structures are written as SMILES. Converted amounts (≈) assume the structure as drawn.

In this assay the test system is Mycobacterium tuberculosis H37Rv. As to the kind of experiment: Mycobacterium tuberculosis H37Rv Inhibition Assay (Whole Cell Assay). The assay is classed as cell-based. The settings on record: ATCC 25618 / H37Rv, H37Rv strain (ATCC25618), Middlebrook 7H9, six days at 37° C., resazurin fluorescence after 48 hours.
The MIC is the lowest concentration that inhibits growth of the organism. A higher MIC goes with a less susceptible organism. `Cc1ccc([C@H]2C[C@@H](C(F)(F)F)n3ncc(C(=O)NCc4cccc(C)c4)c3N2)cc1` (relative stereo) [Example 24, Cis-N-(3-methylbenzyl)-5-(p-tolyl)-7-(trifluoromethyl)-4,5,6,7-tetrahydropyrazolo[1,5-a]pyrimidine-3-carboxamide]: the MIC was not above 1 µM.
To `Cc1ccc(C2CC(C(F)(F)F)n3ncc(C(=O)NCc4ccc5c(c4)OCO5)c3N2)cc1` (centres unmarked) [Example 38, N-(benzo[d][1,3]dioxol-5-ylmethyl)-5-(p-tolyl)-7-(trifluoromethyl)-4,5,6,7-tetrahydropyrazolo[1,5-a]pyrimidine-3-carboxamide] belongs not above 1 µM; to `Cc1ccc(CNC(=O)c2cnn3c2NC(c2ccc(C)cc2)CC3C(F)F)cc1` (centres unmarked) [Example 51, 7-(difluoromethyl)-N-(4-methylbenzyl)-5-(p-tolyl)-4,5,6,7-tetrahydropyrazolo[1,5-a]pyrimidine-3-carboxamide], more than 2 µM.
On to `CCc1ccc([C@H]2C[C@@H](C(F)(F)F)n3ncc(C(=O)NCc4ccccc4F)c3N2)cc1` (relative stereo) [Example 62, Cis-5-(4-ethylphenyl)-N-(2-fluorobenzyl)-7-(trifluoromethyl)-4,5,6,7-tetrahydropyrazolo[1,5-a]pyrimidine-3-carboxamide], for which the MIC is not above 1 µM.
To `CCc1ccc([C@H]2C[C@@H](C(F)(F)F)n3ncc(C(=O)NCc4ccc(Cl)nc4)c3N2)cc1` (relative stereo) [Example 76, Cis-N-((6-chloropyridin-3-yl)methyl)-5-(4-ethylphenyl)-7-(trifluoromethyl)-4,5,6,7-tetrahydropyrazolo[1,5-a]pyrimidine-3-carboxamide] belongs 1 to 2 µM (≈ 0.464 to 0.928 µg/mL); to `CCc1ccc([C@H]2C[C@@H](C(F)(F)F)n3ncc(C(=O)NCc4ccc(F)c(C)n4)c3N2)cc1` (relative stereo) [Example 77, Cis-5-(4-ethylphenyl)-N-((5-fluoro-6-methylpyridin-2-yl)methyl)-7-(trifluoromethyl)-4,5,6,7-tetrahydropyrazolo[1,5-a]pyrimidine-3-carboxamide], 1 to 2 µM (≈ 0.461 to 0.923 µg/mL).
To `Cc1ccc(C2CC(C(F)F)n3ncc(C(=O)NCc4ccccc4C(F)(F)F)c3N2)cc1` (centres unmarked) [Example 55, 7-(difluoromethyl)-5-(p-tolyl)-N-(2-(trifluoromethyl)benzyl)-4,5,6,7-tetrahydropyrazolo[1,5-a]pyrimidine-3-carboxamide] belongs more than 2 µM.
`CCc1ccc([C@H]2C[C@@H](C(F)(F)F)n3ncc(C(=O)NCc4ccoc4)c3N2)cc1` (relative stereo) [Example 12, Cis-5-(4-ethylphenyl)-N-(furan-3-ylmethyl)-7-(trifluoromethyl)-4,5,6,7-tetrahydropyrazolo[1,5-a]pyrimidine-3-carboxamide] returned an MIC not above 1 µM.
To `Cc1ccc([C@H]2C[C@@H](C(F)(F)F)n3ncc(C(=O)NCc4ccc(C(F)(F)F)cc4)c3N2)cc1` (relative stereo) [Example 28, Cis-5-(p-tolyl)-7-(trifluoromethyl)-N-(4-(trifluoromethyl)benzyl)-4,5,6,7-tetrahydropyrazolo[1,5-a]pyrimidine-3-carboxamide] belongs 1 to 2 µM (≈ 0.482 to 0.965 µg/mL); to `Cc1ccc([C@H]2C[C@@H](C(F)(F)F)n3ncc(C(=O)NCc4ccco4)c3N2)cc1` (relative stereo) [56′, Cis-N-(furan-2-ylmethyl)-5-(p-tolyl)-7-(trifluoromethyl)-4,5,6,7-tetrahydropyrazolo[1,5-a]pyrimidine-3-carboxamide, reference compound], more than 2 µM.
To `O=C(NCc1ccc2c(c1)OCO2)c1cnn2c1N[C@@H](c1ccc(Br)cc1)C[C@H]2C(F)(F)F` (relative stereo) [Example 22, Cis-N-(benzo[d][1,3]dioxol-5-ylmethyl)-5-(4-bromophenyl)-7-(trifluoromethyl)-4,5,6,7-tetrahydropyrazolo[1,5-a]pyrimidine-3-carboxamide] belongs not above 1 µM.
